Key:
Format in all cases: binding
Parameters in all cases: KINOMEscan: ABL1(F317L)-phosphorylated / KINOMEscan: ABL1(H396P)-nonphosphorylated / KINOMEscan: ABL1(H396P)-phosphorylated / KINOMEscan: ABL1(M351T)-phosphorylated / KINOMEscan: ABL1(T315I)-phosphorylated / KINOMEscan: ABL1-nonphosphorylated / KINOMEscan: ABL1-phosphorylated / KINOMEscan: ACVR2A / KINOMEscan: ACVR2B / KINOMEscan: ADCK3 / KINOMEscan: ADCK4 / KINOMEscan: AKT1 / KINOMEscan: AKT3 / KINOMEscan: ALK / KINOMEscan: ARK5 / KINOMEscan: AURKA / KINOMEscan: AURKC / KINOMEscan: BIKE / KINOMEscan: BMPR1A / KINOMEscan: BMPR1B / KINOMEscan: BMX / KINOMEscan: BRK / KINOMEscan: BRSK1 / KINOMEscan: BRSK2 / KINOMEscan: CAMK1 / KINOMEscan: CAMK1D / KINOMEscan: CAMK1G / KINOMEscan: CAMK2A / KINOMEscan: CAMK2B / KINOMEscan: AAK1 / KINOMEscan: CAMK2D / KINOMEscan: CAMK2G / KINOMEscan: ABL1(F317I)-nonphosphorylated / KINOMEscan: ABL1(F317I)-phosphorylated / KINOMEscan: ABL1(F317L)-nonphosphorylated: unit: % Ctrl
Details in all cases: Compound Concentration 10 µM
panel of 442 kinases [1] = target: T1, panel of 442 kinases (Homo sapiens, UniProt Q9UQM7)
T1 construct: purchased KINOMEscan
T1 sequence (Q9UQM7 whole entry): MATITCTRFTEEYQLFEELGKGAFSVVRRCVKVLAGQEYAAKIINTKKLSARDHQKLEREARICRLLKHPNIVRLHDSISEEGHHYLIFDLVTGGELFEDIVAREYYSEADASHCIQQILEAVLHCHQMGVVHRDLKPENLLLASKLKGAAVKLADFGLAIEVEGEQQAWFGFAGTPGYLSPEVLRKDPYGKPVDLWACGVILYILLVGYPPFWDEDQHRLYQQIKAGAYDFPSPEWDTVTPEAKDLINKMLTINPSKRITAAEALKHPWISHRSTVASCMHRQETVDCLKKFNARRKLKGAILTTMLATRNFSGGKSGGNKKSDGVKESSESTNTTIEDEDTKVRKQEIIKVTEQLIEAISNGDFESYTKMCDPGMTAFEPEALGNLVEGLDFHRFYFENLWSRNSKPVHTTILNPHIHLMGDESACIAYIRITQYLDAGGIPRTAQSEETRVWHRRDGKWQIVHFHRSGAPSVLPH
Excerpt: (§1) We assessed the selectivity of members of this scaffold using the KINOMEscan methodology across a near comprehensive panel of 442 kinases [[18,27]].

panel of 442 kinases [2] = target: T2, panel of 442 kinases (Homo sapiens, UniProt Q9P1W9)
T2 construct: purchased KINOMEscan
T2 sequence (Q9P1W9 whole entry): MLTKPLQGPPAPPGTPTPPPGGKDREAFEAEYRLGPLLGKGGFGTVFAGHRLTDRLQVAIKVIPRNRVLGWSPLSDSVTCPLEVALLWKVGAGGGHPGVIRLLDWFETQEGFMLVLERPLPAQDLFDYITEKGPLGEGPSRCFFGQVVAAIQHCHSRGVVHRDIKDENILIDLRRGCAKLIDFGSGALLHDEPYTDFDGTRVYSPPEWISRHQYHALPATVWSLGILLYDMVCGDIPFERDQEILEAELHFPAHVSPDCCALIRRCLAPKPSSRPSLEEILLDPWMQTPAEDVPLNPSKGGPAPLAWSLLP
Excerpt: as §1

panel of 442 kinases [3] = target: T3, panel of 442 kinases (Homo sapiens, UniProt O14733)
T3 construct: purchased KINOMEscan
T3 sequence (O14733 1-419): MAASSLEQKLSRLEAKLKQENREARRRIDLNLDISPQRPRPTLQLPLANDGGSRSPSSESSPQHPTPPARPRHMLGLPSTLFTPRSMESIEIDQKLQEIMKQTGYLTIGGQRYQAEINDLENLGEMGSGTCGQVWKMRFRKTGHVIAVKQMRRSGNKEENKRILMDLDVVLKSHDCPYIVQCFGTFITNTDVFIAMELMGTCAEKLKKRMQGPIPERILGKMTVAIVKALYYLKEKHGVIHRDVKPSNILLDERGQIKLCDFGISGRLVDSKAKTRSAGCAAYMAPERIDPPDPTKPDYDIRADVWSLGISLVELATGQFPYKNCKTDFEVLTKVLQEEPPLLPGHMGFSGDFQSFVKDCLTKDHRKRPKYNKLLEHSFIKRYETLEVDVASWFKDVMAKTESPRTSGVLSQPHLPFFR
Excerpt: as §1

SMILES	KINOMEscan: CAMK2A (panel of 442 kinases [1])	KINOMEscan: PIM2 (panel of 442 kinases [2])	KINOMEscan: MKK7 (panel of 442 kinases [3])
COc1cc(C(=O)N2CCC(N3CCN(C)CC3)CC2)ccc1Nc1ncc2c(n1)N1CCc3cccc(c31)C(=O)N2C [Compound 24]	44	85	–
CCOc1cc(C(=O)N2CCC(N3CCN(C)CC3)CC2)ccc1Nc1ncc2c(n1)N(C1CCCC1)c1ccccc1C(=O)N2C [Compound 26]	100	100	88
COc1cc(C(=O)N2CCC(N3CCN(C)CC3)CC2)ccc1Nc1ncc2c(n1)N(C1CCCC1)c1ccccc1C(=O)N2C [Compound 25, 11-cyclopentyl-2-((2-methoxy-4-(4-(4-methylpiperazin-1-yl)piperidine-1-carbonyl)phenyl)amino)-5-methyl-5H-benzo[e]pyrimido[5,4-b][1,4]diazepin-6(11H)-one]	81	100	100
COc1cc(C(=O)N2CCC(N3CCN(C)CC3)CC2)ccc1Nc1ncc2c(n1)N(C)c1ccccc1C(=O)N2C [15 (LRRK2-IN-1)]	21	100	100
